Patent US20260262643A1, “HERBICIDAL BENZOXAZINES” (FMC CORPORATION, priority 2022, published 2026)

Assays:
[1] = test system: soybean; test: Test C preemergence; type: in vivo, Glycine max; conditions: for Soybean plant response rating: preemergence, 0 to 100 scale (0 no effect, 100 complete control)
Method in brief: (§1)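 Visual injury score, 0–100 (100 = complete control), taken 10 days after treatment relative to untreated controls. Pre: directed spray onto soil over sown seeds. Post: foliar spray at one- to two-leaf stage, 2–10 cm. Solvent/surfactant formulation; loam–sand soil; greenhouse.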

[2] = test system: blackgrass; test: Test C postemergence; type: in vivo, Alopecurus myosuroides; conditions: 10 days
Method in brief: as §1

[3] = test system: barnyardgrass; test: Test C preemergence; type: in vivo, Echinochloa crusgalli; conditions: for Barnyardgrass plant response rating: preemergence, 0 to 100 scale (0 no effect, 100 complete control)
Method in brief: as §1

[4] = test system: wheat; test: Test C postemergence; type: in vivo, Triticum aestivum; conditions: 10 days
Method in brief: as §1

[5] = test system: kochia; test: Test C postemergence; type: in vivo, Bassia scoparia; conditions: 10 days
Method in brief: as §1

[6] = test system: oat, wild; test: Test C postemergence; type: in vivo, Avena fatua; conditions: 10 days
Method in brief: as §1

[7] = test system: barnyardgrass; test: Test C postemergence; type: in vivo, Echinochloa crusgalli; conditions: 10 days
Method in brief: as §1

[8] = test system: soybean; test: Test C postemergence; type: in vivo, Glycine max; conditions: postemergence, 10 days
Method in brief: as §1

[9] = test system: pigweed, palmer; test: Test C preemergence; type: in vivo, Amaranthus palmeri; conditions: for Pigweed, Palmer plant response rating: preemergence, 0 to 100 scale (0 no effect, 100 complete control)
Method in brief: as §1

[10] = test system: ryegrass, Italian; test: Test C postemergence; type: in vivo, Lolium multiflorum; conditions: 10 days
Method in brief: as §1

[11] = test system: ragweed; test: Test C postemergence; type: in vivo, Ambrosia artemisiifolia; conditions: 10 days
Method in brief: as §1

[12] = test system: wheat; test: Test C preemergence; type: in vivo, Triticum aestivum; conditions: for Wheat plant response rating: preemergence, 0 to 100 scale (0 no effect, 100 complete control)
Method in brief: as §1

[13] = test system: horseweed; test: Test C postemergence; type: in vivo, Erigeron canadensis; conditions: 10 days
Method in brief: as §1

[14] = test system: ryegrass, Italian; test: Test C preemergence; type: in vivo, Lolium multiflorum; conditions: for Ryegrass, Italian plant response rating: preemergence, 0 to 100 scale (0 no effect, 100 complete control)
Method in brief: as §1

[15] = test system: corn; test: Test C postemergence; type: in vivo, Zea mays; conditions: 10 days
Method in brief: as §1

[16] = test system: green foxtail; test: Test C preemergence; type: in vivo, Setaria viridis; conditions: for Foxtail, Green plant response rating: preemergence, 0 to 100 scale (0 no effect, 100 complete control)
Method in brief: as §1

[17] = test system: pigweed, palmer; test: Test C postemergence; type: in vivo, Amaranthus palmeri; conditions: 10 days
Method in brief: as §1

[18] = test system: ragweed; test: Test C preemergence; type: in vivo, Ambrosia artemisiifolia; conditions: for Ragweed plant response rating: preemergence, 0 to 100 scale (0 no effect, 100 complete control)
Method in brief: as §1

[19] = test system: blackgrass; test: Test C preemergence; type: in vivo, Alopecurus myosuroides; conditions: for Blackgrass plant response rating: preemergence, 0 to 100 scale (0 no effect, 100 complete control)
Method in brief: as §1

[20] = test system: green foxtail; test: Test C postemergence; type: in vivo, Setaria viridis; conditions: 10 days
Method in brief: as §1

[21] = test system: oat, wild; test: Test C preemergence; type: in vivo, Avena fatua; conditions: for Oat, Wild plant response rating: preemergence, 0 to 100 scale (0 no effect, 100 complete control)
Method in brief: as §1

[22] = test system: corn; test: Test C preemergence; type: in vivo, Zea mays; conditions: for Corn plant response rating: preemergence, 0 to 100 scale (0 no effect, 100 complete control)
Method in brief: as §1

[23] = test system: kochia; test: Test C preemergence; type: in vivo, Bassia scoparia; conditions: for Kochia plant response rating: preemergence, 0 to 100 scale (0 no effect, 100 complete control)
Method in brief: as §1

[24] = test system: galium; test: Test C postemergence; type: in vivo, Galium aparine; conditions: 10 days
Method in brief: as §1

[25] = Preemergence, 125 g ai/ha, 0 to 100 scale, 0 no effect, 100 complete control
[26] = 500 g ai/ha, postemergence, 0 to 100 scale (0 no effect, 100 complete control)
[27] = Postemergence, 125 g ai/ha, 0 to 100 scale (0 no effect, 100 complete control)
[28] = 500 g ai/ha, 0 to 100 scale (0 no effect, 100 complete control)
[29] = 125 g ai/ha, postemergence, 0 to 100 scale, 0 no effect, 100 complete control

CC(C)c1ncn(-c2ccc(OS(=O)(=O)C(F)(F)F)c(C(=O)N3C[C@H](C)Oc4c(Cl)cccc43)c2)n1 [Compound 339]
10: Plant response rating, Barnyardgrass [7, 26] | Plant response rating, Barnyardgrass [7, 27] | Plant response rating, Ragweed [11, 26] | Plant response rating, Horseweed [13, 26] | Plant response rating, Foxtail, Green [20, 26]
0: Soybean plant response rating ([1]; 500 g ai/ha) | Plant response rating, Soybean [1, 25] | Plant response rating, Blackgrass [2, 26] | Plant response rating, Blackgrass [2, 27] | Barnyardgrass plant response rating ([3]; 500 g ai/ha) | Plant response rating, Barnyardgrass [3, 25] | Plant response rating, Wheat [4, 26] | Plant response rating, Wheat [4, 27] | Plant response rating, Oat, Wild [6, 26] | Plant response rating, Oat, Wild [6, 27] | Pigweed, Palmer plant response rating ([9]; 500 g ai/ha) | Plant response rating, Pigweed, Palmer [9, 25] | Plant response rating, Ryegrass, Italian [10, 27] | Plant response rating, Ragweed [11, 27] | Wheat plant response rating ([12]; 500 g ai/ha) | Plant response rating, Wheat [12, 25] | Plant response rating, Horseweed [13, 27] | Plant response rating, Corn [15, 26] | Plant response rating, Corn [15, 27] | Foxtail, Green plant response rating ([16]; 500 g ai/ha) | Plant response rating, Foxtail, Green [16, 25] | Ragweed plant response rating ([18]; 500 g ai/ha) | Plant response rating, Ragweed [18, 25] | Blackgrass plant response rating ([19]; 500 g ai/ha) | Plant response rating, Blackgrass [19, 25] | Plant response rating, Foxtail, Green [20, 27] | Oat, Wild plant response rating ([21]; 500 g ai/ha) | Plant response rating, Oat, Wild [21, 25] | Corn plant response rating ([22]; 500 g ai/ha) | Plant response rating, Corn [22, 25] | Plant response rating, Kochia [23, 25]
60: Plant response rating, Kochia [5, 26] | Plant response rating, Galium [24, 27]
30: Plant response rating, Kochia [5, 27]
80: Ryegrass, Italian plant response rating ([14]; 500 g ai/ha)
50: Plant response rating, Pigweed, Palmer [17, 27] | Kochia plant response rating ([23]; 500 g ai/ha) | Plant response rating, Galium [24, 26]
70: Plant response rating, Pigweed, Palmer [17, 26]
20: Plant response rating, Soybean [8, 28] | Plant response rating, Ryegrass, Italian [10, 26] | Plant response rating, Ryegrass, Italian [14, 25]

COC(=O)N(C)c1ncn(-c2cccc(C(=O)N3C[C@H](C)Oc4c(C)cccc43)c2)n1 [30 0]
90: Plant response rating, Galium [24, 26]
0: Soybean plant response rating ([1]; Test C, 125 g ai/ha) | Plant response rating, Blackgrass [2, 29] | Barnyardgrass plant response rating ([3]; Test C, 125 g ai/ha) | Plant response rating, Oat, Wild [6, 29] | Plant response rating, Ragweed [11, 29] | Wheat plant response rating ([12]; Test C, 125 g ai/ha) | Plant response rating, Corn [15, 29] | Ragweed plant response rating ([18]; Test C, 125 g ai/ha) | Blackgrass plant response rating ([19]; Test C, 125 g ai/ha) | Corn plant response rating ([22]; Test C, 125 g ai/ha)
30: Plant response rating, Wheat [4, 26] | Plant response rating, Horseweed [13, 29] | Plant response rating, Horseweed [13, 26] | Plant response rating, Pigweed, Palmer [17, 29] | Oat, Wild plant response rating ([21]; 500 g ai/ha)
40: Plant response rating, Oat, Wild [6, 26] | Plant response rating, Pigweed, Palmer [17, 26]
70: Plant response rating, Soybean ([8]; 125 g ai/ha, 0 to 100 scale, 0 no effect, 100 complete control) | Plant response rating, Corn [15, 26] | Kochia plant response rating ([23]; 500 g ai/ha)
60: Plant response rating, Kochia [5, 26] | Ryegrass, Italian plant response rating ([14]; Test C, 125 g ai/ha) | Plant response rating, Galium [24, 29]
100: Plant response rating, Soybean [8, 28] | Foxtail, Green plant response rating ([16]; 500 g ai/ha)
80: Plant response rating, Blackgrass [2, 26] | Pigweed, Palmer plant response rating ([9]; 500 g ai/ha) | Plant response rating, Ryegrass, Italian [10, 26] | Ryegrass, Italian plant response rating ([14]; 500 g ai/ha) | Foxtail, Green plant response rating ([16]; Test C, 125 g ai/ha)
10: Plant response rating, Wheat [4, 29] | Plant response rating, Barnyardgrass [7, 29] | Plant response rating, Ryegrass, Italian [10, 29] | Plant response rating, Foxtail, Green [20, 29] | Corn plant response rating ([22]; 500 g ai/ha)
20: Soybean plant response rating ([1]; 500 g ai/ha) | Pigweed, Palmer plant response rating ([9]; Test C, 125 g ai/ha) | Wheat plant response rating ([12]; 500 g ai/ha) | Ragweed plant response rating ([18]; 500 g ai/ha) | Blackgrass plant response rating ([19]; 500 g ai/ha) | Oat, Wild plant response rating ([21]; Test C, 125 g ai/ha)
50: Barnyardgrass plant response rating ([3]; 500 g ai/ha) | Plant response rating, Kochia [5, 29] | Plant response rating, Barnyardgrass [7, 26] | Plant response rating, Ragweed [11, 26] | Plant response rating, Foxtail, Green [20, 26] | Kochia plant response rating ([23]; Test C, 125 g ai/ha)
